Experimental data taken from patent publication US6855719B1, “Imidazo[1,2-A]pyridine and pyrazolo[2,3-A]pyridine derivatives” (AstraZeneca AB, priority 1999, dated 2005).

Molecular target: T1, CDK2/Cyclin E (Homo sapiens, UniProt P24941)
T1 construct: The open reading frames of CDK2 and Cyclin E were isolated by reverse transcriptase-PCR; made in house; host or cells: Sf21 (Spodoptera frugiperda) insect cells, baculovirus co-infection; GST-Rb substrate made in E. coli BL21 (DE3) pLysS
Test: in vitro kinase assay (Scintillation Proximity Assay), incorporation of [γ-33-P]-ATP into GST-Rb
Format: biochemical
Settings: CDK2/Cyclin E partially-purified enzyme, GST-Rb substrate, 0.2 μM ATP, 60 minutes room temperature; read-out: CDK2 inhibitory activity IC50
Experimental: The compounds were tested in an in vitro kinase assay in 96 well format using Scintillation Proximity Assay (SPA—obtained from Amersham) for measuring incorporation of [γ-33-P]-Adenosine Triphosphate into a test substrate (GST-Retinoblastoma protein; GST-Rb). In each well was placed the compound to be tested (diluted in DMSO and water to correct concentrations) and in control wells either roscovitine as an inhibitor control or DMSO as a […] control.
Approximately 0.2 μl of CDK2/Cyclin E partially-purified enzyme (amount dependent on enzyme activity) diluted in 25 μl incubation buffer was added to each well then 20 μl of GST-Rb/ATP/ATP33 mixture (containing 0.5 μg GST-Rb and 0.2 μM ATP and 0.14 μCi [γ-33-P]-Adenosine Triphosphate in incubation buffer), and the resulting mixture shaken gently, then incubated at room temperature for 60 minutes. […]
The plates were sealed with Topseal-S plate sealers, left for two hours then spun at 2500 rpm, 1124× g., for 5 minutes. The plates were read on a Topcount for 30 seconds per well. […]
The open reading frames of CDK2 and Cyclin E were isolated by reverse transcriptase-PCR using HeLa cell and activated T cell mRNA as a template and cloned into the insect expression vector pVL1393 (obtained from Invitrogen 1995 catalogue number. V1392-20). […]

CCN(CC)CCOc1ccc(Nc2nccc(-c3cnc4ccccn34)n2)cc1 [Example 12, 2-[4-(2-Diethylaminoethoxy)anilino]-4-(imidazo[1,2a]pyrid-3-yl)pyrimidine]
IC50: 170 nM

O=S(=O)(c1ccc(Nc2nccc(-c3cnc4ccccn34)n2)cc1)N1COCOC1 [Example 11, 2-[4-(3,5-Dioxapiperidin-1-yl)sulphonylanilino]-4-(imidazo[1,2a]pyrid-3-yl)pyrimidine]
IC50: 190 nM
